According to ChEMBL document CHEMBL1201862, “PubChem BioAssay data set” (2004):
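Test compounds were applied to cells in 96-well plates for 48 hours at 5 doses. At the GI50, growth is halved.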 Active and inactive are the calls of the source. No stated cut-off is given here; in the data, active = GI50 up to about 1.1 µM and inactive = higher.

Tests used:
Experiment in all cases: DTP human tumour cell line panel, 48 h
NCI-H226 = tested on: NCI-H226
Hs-578T = tested on: Hs-578T
T47D = tested on: T47D
ACHN = tested on: ACHN
UO-31 = tested on: UO-31
SW-620 = tested on: SW-620
HOP-92 = tested on: HOP-92
U-251 = tested on: U-251
EKVX = tested on: EKVX
CCRF-CEM = tested on: CCRF-CEM
OVCAR-8 = tested on: OVCAR-8
NCI-H522 = tested on: NCI-H522
NCI-H460 = tested on: NCI-H460
SK-MEL-28 = tested on: SK-MEL-28
SF-295 = tested on: SF-295
KM12 = tested on: KM12
HOP-62 = tested on: HOP-62
OVCAR-3 = tested on: OVCAR-3
SN12C = tested on: SN12C
DU-145 = tested on: DU-145
PC-3 = tested on: PC-3
HCC 2998 = tested on: HCC 2998
RPMI-8226 = tested on: RPMI-8226
M14 = tested on: M14
SK-MEL-2 = tested on: SK-MEL-2
MDA-MB-435 = tested on: MDA-MB-435
Malme-3M = tested on: Malme-3M
NCI-H23 = tested on: NCI-H23
UACC-257 = tested on: UACC-257
A549 = tested on: A549
A498 = tested on: A498
MDA-MB-231 = tested on: MDA-MB-231
LOX IMVI = tested on: LOX IMVI
CAKI-1 = tested on: CAKI-1
SNB-75 = tested on: SNB-75
IGROV-1 = tested on: IGROV-1
SNB-19 = tested on: SNB-19
786-0 = tested on: 786-0
MOLT-4 = tested on: MOLT-4
NCI/ADR-RES = tested on: NCI/ADR-RES
TK-10 = tested on: TK-10
SK-OV-3 = tested on: SK-OV-3
COLO 205 = tested on: COLO 205
SR = tested on: SR
K562 = tested on: K562
MCF7 = tested on: MCF7
SF-539 = tested on: SF-539
OVCAR-4 = tested on: OVCAR-4
HL-60 = tested on: HL-60
HCT-15 = tested on: HCT-15
BT-549 = tested on: BT-549
SK-MEL-5 = tested on: SK-MEL-5
OVCAR-5 = tested on: OVCAR-5
HCT-116 = tested on: HCT-116
HT-29 = tested on: HT-29
UACC-62 = tested on: UACC-62
RXF 393 = tested on: RXF 393
SF-268 = tested on: SF-268
MDA-N = tested on: MDA-N

COc1ccc(CN(Cc2ccc(OC)cc2)C(=O)CC2(O)CCc3ccccc3C2)cc1 (stereo not given)
GI50 (NCI-H226): 15.1 µM (inactive) | GI50 (Hs-578T): 40.3 µM (inactive) | GI50 (T47D): 8.71 µM (inactive) | GI50 (ACHN): 49.8 µM (inactive) | GI50 (UO-31): 15.1 µM (inactive) | GI50 (SW-620): > 100 µM (inactive) | GI50 (HOP-92): > 100 µM (inactive) | GI50 (U-251): 63.1 µM (inactive) | GI50 (EKVX): 37.5 µM (inactive) | GI50 (CCRF-CEM): 16.6 µM (inactive) | GI50 (OVCAR-8): 37 µM (inactive) | GI50 (NCI-H522): 24 µM (inactive) | GI50 (NCI-H460): 44 µM (inactive) | GI50 (SK-MEL-28): > 100 µM (inactive) | GI50 (SF-295): 27.1 µM (inactive) | GI50 (KM12): 26 µM (inactive) | GI50 (HOP-62): > 100 µM (inactive) | GI50 (OVCAR-3): > 100 µM (inactive) | GI50 (SN12C): > 100 µM (inactive) | GI50 (DU-145): > 100 µM (inactive) | GI50 (PC-3): 17.2 µM (inactive) | GI50 (HCC 2998): 68.9 µM (inactive) | GI50 (RPMI-8226): 62.2 µM (inactive) | GI50 (M14): 66.1 µM (inactive) | GI50 (SK-MEL-2): 60 µM (inactive) | GI50 (MDA-MB-435): 34.8 µM (inactive) | GI50 (Malme-3M): 28.2 µM (inactive) | GI50 (NCI-H23): > 100 µM (inactive) | GI50 (UACC-257): 42.8 µM (inactive) | GI50 (A549): 30.1 µM (inactive) | GI50 (A498): > 100 µM (inactive) | GI50 (MDA-MB-231): > 100 µM (inactive) | GI50 (LOX IMVI): 52.4 µM (inactive) | GI50 (CAKI-1): 43.2 µM (inactive) | GI50 (SNB-75): 30.1 µM (inactive) | GI50 (IGROV-1): > 100 µM (inactive) | GI50 (SNB-19): > 100 µM (inactive) | GI50 (786-0): > 100 µM (inactive) | GI50 (MOLT-4): 7.89 µM (inactive) | GI50 (NCI/ADR-RES): 12.9 µM (inactive) | GI50 (TK-10): > 100 µM (inactive) | GI50 (SK-OV-3): > 100 µM (inactive) | GI50 (COLO 205): 21.8 µM (inactive) | GI50 (SR): 16 µM (inactive) | GI50 (K562): > 100 µM (inactive) | GI50 (MCF7): 41.2 µM (inactive) | GI50 (SF-539): > 100 µM (inactive) | GI50 (OVCAR-4): 57 µM (inactive) | GI50 (HL-60): 17.8 µM (inactive) | GI50 (HCT-15): 54.6 µM | GI50 (BT-549): > 100 µM (inactive) | GI50 (SK-MEL-5): 28.8 µM (inactive) | GI50 (OVCAR-5): > 100 µM (inactive) | GI50 (HCT-116): 38 µM (inactive) | GI50 (HT-29): 37.4 µM (inactive) | GI50 (UACC-62): 50.9 µM (inactive)

Cc1ccc(SC2=C(N(C)C)C(=O)c3ccccc3C2=O)cc1
GI50 (NCI-H226): 9.82 µM (inactive) | GI50 (Hs-578T): 4.85 µM (inactive) | GI50 (T47D): 3.35 µM (inactive) | GI50 (ACHN): 6.87 µM (inactive) | GI50 (UO-31): 10.1 µM (inactive) | GI50 (SW-620): 1.46 µM (inactive) | GI50 (HOP-92): 4.71 µM (inactive) | GI50 (U-251): 8.05 µM (inactive) | GI50 (EKVX): 6.71 µM (inactive) | GI50 (CCRF-CEM): 1.55 µM (inactive) | GI50 (OVCAR-8): 1.91 µM (inactive) | GI50 (NCI-H522): 1.22 µM (inactive) | GI50 (NCI-H460): 6.3 µM (inactive) | GI50 (SK-MEL-28): 10.3 µM (inactive) | GI50 (SF-295): 11.5 µM (inactive) | GI50 (KM12): 3.06 µM (inactive) | GI50 (HOP-62): 8.2 µM (inactive) | GI50 (OVCAR-3): 0.661 µM (active) | GI50 (SN12C): 4.92 µM (inactive) | GI50 (DU-145): 10.7 µM (inactive) | GI50 (PC-3): 4.11 µM (inactive) | GI50 (HCC 2998): 14 µM (inactive) | GI50 (RPMI-8226): 2.54 µM (inactive) | GI50 (M14): 3.27 µM (inactive) | GI50 (SK-MEL-2): 9.73 µM (inactive) | GI50 (MDA-MB-435): 0.444 µM (active) | GI50 (Malme-3M): 4.83 µM (inactive) | GI50 (NCI-H23): 1.82 µM (inactive) | GI50 (UACC-257): 1.91 µM (inactive) | GI50 (A549): 12.6 µM (inactive) | GI50 (RXF 393): 6.15 µM (inactive) | GI50 (A498): 15.9 µM (inactive) | GI50 (MDA-MB-231): 4.24 µM (inactive) | GI50 (LOX IMVI): 3.35 µM (inactive) | GI50 (CAKI-1): 1.53 µM (inactive) | GI50 (SNB-75): 12.1 µM (inactive) | GI50 (IGROV-1): 4.95 µM (inactive) | GI50 (SNB-19): 12.3 µM (inactive) | GI50 (786-0): 3.82 µM (inactive) | GI50 (SF-268): 4.76 µM (inactive) | GI50 (MOLT-4): 0.82 µM (active) | GI50 (NCI/ADR-RES): 0.847 µM (active) | GI50 (TK-10): 7.43 µM (inactive) | GI50 (SK-OV-3): 10.7 µM (inactive) | GI50 (COLO 205): 20.8 µM (inactive) | GI50 (SR): 0.631 µM (active) | GI50 (K562): 0.383 µM (active) | GI50 (MCF7): 2.31 µM (inactive) | GI50 (SF-539): 2.79 µM (inactive) | GI50 (OVCAR-4): 4.06 µM (inactive) | GI50 (HL-60): 0.38 µM (active) | GI50 (HCT-15): 2.45 µM | GI50 (BT-549): 6.43 µM (inactive) | GI50 (SK-MEL-5): 2.31 µM (inactive) | GI50 (OVCAR-5): 12.9 µM (inactive) | GI50 (HCT-116): 1.1 µM (active) | GI50 (HT-29): 6.27 µM (inactive) | GI50 (UACC-62): 4.35 µM (inactive)

CC1(C(=O)O)C[C@](C)(C(=O)OCc2ccccc2)C[C@](C)(C(=O)OCc2ccccc2)C1 (stereo not given in full)
GI50 (NCI-H226): 27.3 µM (inactive) | GI50 (Hs-578T): 30.3 µM (inactive) | GI50 (T47D): 35.2 µM (inactive) | GI50 (ACHN): 22.9 µM (inactive) | GI50 (UO-31): 21.9 µM (inactive) | GI50 (SW-620): 47 µM (inactive) | GI50 (HOP-92): 19.6 µM (inactive) | GI50 (EKVX): 25.1 µM (inactive) | GI50 (CCRF-CEM): 34.3 µM (inactive) | GI50 (OVCAR-8): 34.5 µM (inactive) | GI50 (NCI-H522): 21.6 µM (inactive) | GI50 (NCI-H460): 23.9 µM (inactive) | GI50 (SK-MEL-28): 50.2 µM (inactive) | GI50 (SF-295): 21.2 µM (inactive) | GI50 (KM12): 31.2 µM (inactive) | GI50 (HOP-62): 30.5 µM (inactive) | GI50 (OVCAR-3): 26.4 µM (inactive) | GI50 (SN12C): 30.2 µM (inactive) | GI50 (DU-145): 29.8 µM (inactive) | GI50 (PC-3): 26.2 µM (inactive) | GI50 (HCC 2998): 27 µM (inactive) | GI50 (RPMI-8226): 26.2 µM (inactive) | GI50 (M14): 45.6 µM (inactive) | GI50 (SK-MEL-2): 17.5 µM (inactive) | GI50 (MDA-MB-435): 40.5 µM (inactive) | GI50 (Malme-3M): 63.2 µM (inactive) | GI50 (NCI-H23): 25.1 µM (inactive) | GI50 (UACC-257): 38.9 µM (inactive) | GI50 (A549): 35.6 µM (inactive) | GI50 (RXF 393): 21.6 µM (inactive) | GI50 (LOX IMVI): 30.8 µM (inactive) | GI50 (CAKI-1): 25.4 µM (inactive) | GI50 (SNB-75): 13.7 µM (inactive) | GI50 (IGROV-1): 22.8 µM (inactive) | GI50 (SNB-19): 45.7 µM (inactive) | GI50 (786-0): 32 µM (inactive) | GI50 (SF-268): 47.9 µM (inactive) | GI50 (MOLT-4): 25.4 µM (inactive) | GI50 (NCI/ADR-RES): 29.4 µM (inactive) | GI50 (TK-10): 43.3 µM (inactive) | GI50 (SK-OV-3): 32.6 µM (inactive) | GI50 (COLO 205): 18.5 µM (inactive) | GI50 (SR): 29.1 µM (inactive) | GI50 (K562): 37 µM (inactive) | GI50 (MCF7): 34.1 µM (inactive) | GI50 (SF-539): 25.8 µM (inactive) | GI50 (OVCAR-4): 39.8 µM (inactive) | GI50 (HL-60): 22.4 µM (inactive) | GI50 (HCT-15): 25.5 µM | GI50 (BT-549): 26.5 µM (inactive) | GI50 (SK-MEL-5): 32.7 µM (inactive) | GI50 (OVCAR-5): 34.3 µM (inactive) | GI50 (MDA-N): 36 µM (inactive) | GI50 (HCT-116): 24.1 µM (inactive) | GI50 (HT-29): 31.8 µM (inactive) | GI50 (UACC-62): 19 µM (inactive)
